{"source": "patent US7977375B2", "about": "“Antibiotic and method of production thereof” (Helmholtz-Zentrum Für Infektionsforschung GmbH, priority 2004, dated 2011)", "key": {"[1]": {"tested_on": "E. faecalis VRAS E305", "experiment": "agar diffusion method, inhibition zone", "type": "cell-based, Enterococcus faecalis", "settings": "E. faecalis VRAS E305, MH agar, 18 hours at 37° C., per disk 10 μl crude extract, 50 μg macrolactin, 78 μg erythromycin, 30 μg vancomycin, 10 μg ampicillin", "description": "(§1) The agar diffusion method employing Mueller-Hinton (MH) agar (Difco Laboratories) was used to determine effectiveness against bacteria and yeasts. Sterile paper disks (Schleicher & Schüell, Germany) were seeded with 10 μl crude extract or with a solution of purified macrolactin (final compound concentration on the disk 50 μg) and then placed on the surface of MH-agar plates that had been seeded beforehand with a suspension of overnight culture of the test microorganisms at a concentration of 10^5 cells/ml."}, "[2]": {"tested_on": "E. faecalis ATCC 29212", "experiment": "agar diffusion method, inhibition zone", "type": "cell-based, Enterococcus faecalis", "settings": "E. faecalis ATCC 29212, MH agar, 18 hours at 37° C., per disk 10 μl crude extract, 50 μg macrolactin, 78 μg erythromycin, 30 μg vancomycin, 10 μg ampicillin", "description": "as §1"}, "[3]": {"tested_on": "B. cepacia SCV 141", "experiment": "agar diffusion method, inhibition zone", "type": "cell-based, Burkholderia cepacia", "settings": "18 hours at 37° C., per disk 10 μl crude extract, 50 μg macrolactin, 78 μg erythromycin, 10 μg ampicillin; for Inhibition zone: MH agar", "description": "as §1\nThe B. cepacia strain used, which is a clinical isolate from a cystic fibrosis patient, forms small colonies (SCV 141)."}, "[4]": {"tested_on": "S. aureus DSMZ 1104", "experiment": "agar diffusion method, inhibition zone", "type": "cell-based, Staphylococcus aureus", "settings": "S. aureus DSMZ 1104, MH agar, 18 hours at 37° C., per disk 10 μl crude extract, 50 μg macrolactin, 78 μg erythromycin, 30 μg vancomycin, 10 μg ampicillin", "description": "as §1"}, "[5]": {"tested_on": "S. aureus # (own collection, methicillin-sensitive control strain)", "experiment": "agar diffusion method, inhibition zone", "type": "cell-based, Staphylococcus aureus", "settings": "S. aureus # own collection, MH agar, 18 hours at 37° C., per disk 10 μl crude extract, 50 μg macrolactin, 78 μg erythromycin, 30 μg vancomycin, 10 μg ampicillin", "description": "as §1"}, "[6]": {"tested_on": "MRSA 2 (methicillin-resistant S. aureus, clinical isolate)", "experiment": "agar diffusion method, inhibition zone", "type": "cell-based, Staphylococcus aureus", "settings": "MRSA 2, MH agar, 18 hours at 37° C., per disk 10 μl crude extract, 50 μg macrolactin, 78 μg erythromycin, 30 μg vancomycin, 10 μg ampicillin", "description": "as §1"}, "[7]": {"tested_on": "MRSA 3 (methicillin-resistant S. aureus, clinical isolate)", "experiment": "agar diffusion method, inhibition zone", "type": "cell-based, Staphylococcus aureus", "settings": "MRSA 3, MH agar, 18 hours at 37° C., per disk 10 μl crude extract, 50 μg macrolactin, 78 μg erythromycin, 30 μg vancomycin, 10 μg ampicillin", "description": "as §1"}, "[8]": {"tested_on": "E. faecium VRAR E315", "experiment": "agar diffusion method, inhibition zone", "type": "cell-based, Enterococcus faecium", "settings": "E. faecium VRAR E315, MH agar, 18 hours at 37° C., per disk 10 μl crude extract, 50 μg macrolactin, 78 μg erythromycin, 30 μg vancomycin, 10 μg ampicillin", "description": "as §1"}, "[9]": {"tested_on": "L929 mouse fibroblast cells", "experiment": "inhibition of proliferation, CyQUANT cell proliferation test", "type": "cell-based", "settings": "5 days", "description": "The cytotoxicity of 7-O-malonyl macrolactin A was compared to that of 7-O-succinyl macrolactin A and macrolactin A in vitro with respect to the inhibition of the proliferation of L929 mouse fibroblast cells or the human epithelial cell line HeLa.\nFor the cell culture, the HeLa cells were cultivated in low-glucose DMEM medium (Gibco), and the L929 cells in high-glucose DMEM medium. Both were supplemented with 10% by volume foetal calf serum (Gibco) at 37° C. in an atmosphere containing 5% CO2. The cells were extracted from stock cultures by means of trypsinization with EDTA (HeLa) or without EDTA (L929), then counted and diluted to 2×10^5 cells/ml. For the tests, microtitre plates (Nunc.) comprising 96 depressions were plated out in serial dilution without or in the presence of the test compounds or methanol. Determination of morphological alterations of the cells was carried out by means of phase contrast microscopy after 1, 2 and 5 days incubation.\nAfter 5 days cultivation, cell counts were determined by the CyQUANT cell proliferation test (Molecular Probes), which is a highly sensitive microtitre plate test based on fluorescence. The test employs the dye CyQUANT, which, by binding to cellular nucleic acids, enhances fluorescence, which can then be measured by fluorescein excitation. The emission of fluorescence by the dye-nucleic acid complex correlated linearly with the cell count. For test purposes, the residue was carefully removed after 5 days incubation, the cells washed with PBS (phosphate buffered saline solution), the buffer removed and the cells frozen at −80° C. For the test, the cells were thawed at ambient temperature and lysated in a buffered solution containing the dye CyQUANT, in accordance with manufacturer's instructions. Fluorescence was measured by means of a fluormetric microtitre-plate reader (Titertex Fluorskan II) (excitation at 480 nm, emission at 520 nm). The […] were used to calculate the percentage of cellular proliferation in medium both alone and in the presence of serial dilutions of methanol and the macrolactin compounds. […] Proliferation was measured by means of the fluorescence-based test CyQUANT for determining viable cell counts. Table 5 illustrates the relative inhibition of proliferation as compared to a control culture comprising fresh medium without the addition of a macrolactin."}, "[10]": {"tested_on": "E. faecalis ATCC 29212", "experiment": "MIC / MBC in liquid culture", "type": "cell-based, Enterococcus faecalis", "settings": "Enterococcus faecalis, ATCC29212, E. faecalis ATCC 29212; read-out: MIC (minimal inhibitory concentration)"}, "[11]": {"tested_on": "MRSA 2", "experiment": "MIC / MBC in liquid culture", "type": "cell-based, Staphylococcus aureus", "settings": "Staphylococcus aureus; MRSA 2; read-out: MIC (minimal inhibitory concentration)"}, "[12]": {"tested_on": "E. faecium VRAR E315", "experiment": "MIC / MBC in liquid culture", "type": "cell-based, Enterococcus faecium", "settings": "Enterococcus faecium, VRARE315; E. faecium VRAR E315; read-out: MIC (minimal inhibitory concentration)"}, "[13]": {"tested_on": "B. cepacia WT139", "experiment": "MIC / MBC in liquid culture", "type": "cell-based, Burkholderia cepacia", "settings": "Burkholderia cepacia, read-out: MIC (minimal inhibitory concentration)", "excerpt": "(§2) 7-O-malonyl macrolactin A was not effective against some of the gram-negative bacteria tested by the inventors."}, "[14]": {"tested_on": "B. cepacia SCV 141", "experiment": "MIC / MBC in liquid culture", "type": "cell-based, Burkholderia cepacia", "settings": "Burkholderia cepacia, SCV141, read-out: MIC (minimal inhibitory concentration)", "excerpt": "as §2"}, "[15]": {"tested_on": "S. aureus # (non-methicillin-resistant reference strain)", "experiment": "MIC / MBC in liquid culture", "type": "cell-based, Staphylococcus aureus", "settings": "Staphylococcus aureus; S. aureus #; read-out: MIC (minimal inhibitory concentration)"}, "[16]": {"tested_on": "MRSA 3", "experiment": "MIC / MBC in liquid culture", "type": "cell-based, Staphylococcus aureus", "settings": "Staphylococcus aureus; MRSA 3; read-out: MIC (minimal inhibitory concentration)"}, "[17]": {"tested_on": "E. faecalis VRAS E305", "experiment": "MIC / MBC in liquid culture", "type": "cell-based, Enterococcus faecalis", "settings": "Enterococcus faecalis, VRASE305; E. faecalis VRAS E305; read-out: MIC (minimal inhibitory concentration)"}, "[18]": {"settings": "listed as 7-O-Succinyl-macrolactin A"}}}
{"smiles": "CC1CCCC=CC=CC(O)CC(O)CC=CC=CC(OC(=O)CCC(=O)O)CC=CC=CC(=O)O1", "note": "(stereo not shown) [7-O-succinyl macrolactin A]", "values": [{"measurement": "Inhibition zone", "setting": "[1]", "result": "no activity"}, {"measurement": "Inhibition zone", "setting": "[1]; [18]", "result": 0, "unit": "mm"}, {"measurement": "Inhibition zone", "setting": "[2]", "result": 12, "unit": "mm"}, {"measurement": "Inhibition zone", "setting": "[3]", "result": "no activity"}, {"measurement": "Inhibition zone", "setting": "[3]; [18]", "result": 0, "unit": "mm"}, {"measurement": "Inhibition zone", "setting": "[4]", "result": 18, "unit": "mm"}, {"measurement": "Inhibition zone", "setting": "[5]", "result": 22, "unit": "mm"}, {"measurement": "Inhibition zone", "setting": "[6]", "result": 37, "unit": "mm"}, {"measurement": "Inhibition zone", "setting": "[7]", "result": 38, "unit": "mm"}, {"measurement": "Inhibition zone", "setting": "[8]", "result": 20, "unit": "mm"}, {"measurement": "Inhibition of proliferation", "setting": "[9]; compound concentration 3.9 μg/ml", "result": 0, "unit": "%"}, {"measurement": "Inhibition of proliferation", "setting": "[9]; compound concentration 15.6 μg/ml", "result": 0, "unit": "%"}, {"measurement": "Inhibition of proliferation", "setting": "[9]; compound concentration 31.25 μg/ml", "result": 55, "unit": "%"}, {"measurement": "Inhibition of proliferation", "setting": "[9]; compound concentration 56.5 μg/ml", "result": 83, "unit": "%"}, {"measurement": "Inhibition of proliferation", "setting": "[9]; compound concentration 125 μg/ml", "result": 87, "unit": "%"}]}
{"smiles": "CC1(C)S[C@@H]2[C@H](NC(=O)[C@H](N)c3ccccc3)C(=O)N2[C@H]1C(=O)O", "note": "[Ampicillin, ampicillin]", "values": [{"measurement": "MIC", "setting": "[10]", "result": 0.5, "unit": "µg/mL"}, {"measurement": "zone of inhibition at 10 µg/disc", "setting": "[1]; Enterococcus faecalis, VRASE305", "result": 35, "unit": "mm"}, {"measurement": "zone of inhibition at 10 µg/disc", "setting": "[2]; Enterococcus faecalis, ATCC29212", "result": 32, "unit": "mm"}, {"measurement": "MIC", "setting": "[11]", "result": "> 128", "unit": "µg/mL"}, {"measurement": "MIC", "setting": "[12]", "result": "> 128", "unit": "µg/mL"}, {"measurement": "MIC", "setting": "[13]", "result": "> 128", "unit": "µg/mL"}, {"measurement": "MIC", "setting": "[14]", "result": 128, "unit": "µg/mL"}, {"measurement": "zone of inhibition at 10 µg/disc", "setting": "[3]; Burkholderia cepacia, SCV141, MH agar", "result": 0, "unit": "mm"}, {"measurement": "MIC", "setting": "[15]", "result": 0.06, "unit": "µg/mL"}, {"measurement": "zone of inhibition at 10 µg/disc", "setting": "[4]; Staphylococcus aureus, DSMZ1104", "result": 30, "unit": "mm"}, {"measurement": "zone of inhibition at 10 µg/disc", "setting": "[5]; Staphylococcus aureus", "result": 41, "unit": "mm"}, {"measurement": "zone of inhibition at 10 µg/disc", "setting": "[6]; Staphylococcus aureus", "result": 0, "unit": "mm"}, {"measurement": "zone of inhibition at 10 µg/disc", "setting": "[7]; Staphylococcus aureus", "result": 0, "unit": "mm"}, {"measurement": "MIC", "setting": "[16]", "result": 64, "unit": "µg/mL"}, {"measurement": "zone of inhibition at 10 µg/disc", "setting": "[8]; Enterococcus faecium, VRARE315", "result": 0, "unit": "mm"}, {"measurement": "MIC", "setting": "[17]", "result": 0.5, "unit": "µg/mL"}]}
